The source of these data is ChEMBL document CHEMBL1123912, “Analogues of the cytostatic and antimitogenic agents chlamydocin and HC-toxin: synthesis and biological activity of chloromethyl ketone and diazomethyl ketone functionalized cyclic tetrapeptides” (J Med Chem, 1987).

In general, IC50 refers to the concentration at which inhibition is half-maximal. Low readings indicate higher potency, high ones lower potency.

≈ marks a conversion by molar mass, not a printed value.

The species entered for one experiment is Mus musculus. Put plainly: Compound was evaluated for the inhibition of Con A (concanavalin A) stimulated murine thymocyte mitogenesis.
Settings: not given
In kind it is functional.
`C[C@@H]1NC(=O)[C@H](C)NC(=O)[C@@H]2CCCN2C(=O)[C@H](CCCCCC(=O)C=[N+]=[N-])NC1=O` gave an IC50 greater than 2 µg/mL. On the same count and under the same terms, to `CC1(C)NC(=O)[C@H](CCCCCC(=O)CCl)NC(=O)[C@H]2CCCN2C(=O)[C@H](Cc2ccccc2)NC1=O` belongs 0.01 µg/mL (≈ 0.0188 µM); to `CC1(C)NC(=O)[C@H](CCCCCC(=O)[C@H]2CO2)NC(=O)[C@H]2CCCN2C(=O)[C@H](Cc2ccccc2)NC1=O` [CHLAMYDOCIN], 0.003 µg/mL (≈ 0.0057 µM); to `C[C@@H]1NC(=O)[C@H](C)NC(=O)[C@@H]2CCCN2C(=O)[C@H](CCCCCC(=O)CCl)NC1=O`, 0.04 µg/mL (≈ 0.0903 µM).

The molecule `C[C@@H]1NC(=O)[C@H](Cc2ccccc2)NC(=O)[C@@H]2CCCN2C(=O)[C@H](CCCCCC(=O)CCl)NC1=O` displayed an IC50 of 0.1 µg/mL (≈ 0.193 µM).

For a further experiment, the system named is P815. Put plainly: Compound was evaluated for the inhibition of cell growth in mouse P-815 mastocytoma cells. It is filed as functional. Conditions: read-out: ED50 (the source's name).
For the molecule `CC1(C)NC(=O)[C@H](CCCCCC(=O)[C@H]2CO2)NC(=O)[C@H]2CCCN2C(=O)[C@H](Cc2ccccc2)NC1=O` [CHLAMYDOCIN], the EC50 worked out at 0.00036 µg/mL (≈ 0.000684 µM).
